Data: PubChem BioAssay (NCI)
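Values below derive from 48-hour exposures of cells grown in 96-well plates, with endpoints linearly interpolated between the two concentrations bracketing the appropriate inhibition level. The concentration for full growth arrest is given as TGI.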

Key:
Assay in all cases: DTP human tumour cell line panel, 48 h
HCC-2998 colon = system: HCC-2998 colon
SF-295 CNS = system: SF-295 CNS
SNB-19 CNS = system: SNB-19 CNS
786-0 renal = system: 786-0 renal
COLO 205 colon = system: COLO 205 colon
SN12C renal = system: SN12C renal
RXF 393 renal = system: RXF 393 renal
NCI-H522 lung = system: NCI-H522 lung
TK-10 renal = system: TK-10 renal
U251 CNS = system: U251 CNS
MOLT-4 leukemia = system: MOLT-4 leukemia
UACC-62 melanoma = system: UACC-62 melanoma
HS 578T breast = system: HS 578T breast
MDA-N = system: MDA-N
NCI/ADR-RES ovarian = system: NCI/ADR-RES ovarian

## CCOP1(=O)C=C(C)C(Cl)=C(C)C1 (configuration not stated)
HCC-2998 colon
  TGI: > 100 µM
SF-295 CNS
  TGI: > 100 µM
SNB-19 CNS
  TGI: > 100 µM
786-0 renal
  TGI: 83 µM
COLO 205 colon
  TGI: 24.4 µM
SN12C renal
  TGI: 51.5 µM
RXF 393 renal
  TGI: 77.2 µM
NCI-H522 lung
  TGI: 27.8 µM
TK-10 renal
  TGI: 96.7 µM
U251 CNS
  TGI: 63.2 µM
MOLT-4 leukemia
  TGI: 76.1 µM
UACC-62 melanoma
  TGI: 33.9 µM

## COC(=O)/C=C(\CC(=O)OC)n1nnnc1[C@@H]1C[C@H](COC(c2ccccc2)(c2ccccc2)c2ccccc2)[C@H]2OC(C)(C)O[C@H]21
HS 578T breast
  TGI: > 100 µM
SF-295 CNS
  TGI: > 100 µM
SNB-19 CNS
  TGI: > 100 µM
MDA-N
  TGI: > 100 µM
786-0 renal
  TGI: > 100 µM
COLO 205 colon
  TGI: > 100 µM
SN12C renal
  TGI: > 100 µM
RXF 393 renal
  TGI: > 100 µM
NCI-H522 lung
  TGI: > 100 µM
TK-10 renal
  TGI: > 100 µM
U251 CNS
  TGI: > 100 µM
MOLT-4 leukemia
  TGI: > 100 µM

## Cc1ccc(NC(=O)c2cc(S(=O)(=O)Nc3n[nH]c(=O)[nH]3)c(SSc3cc(Cl)c(C(=O)Nc4ccc(C)cc4)cc3S(=O)(=O)Nc3n[nH]c(=O)[nH]3)cc2Cl)cc1
HCC-2998 colon
  TGI: > 100 µM
HS 578T breast
  TGI: > 100 µM
SF-295 CNS
  TGI: > 100 µM
SNB-19 CNS
  TGI: > 100 µM
NCI/ADR-RES ovarian
  TGI: > 100 µM
MDA-N
  TGI: > 100 µM
786-0 renal
  TGI: > 100 µM
COLO 205 colon
  TGI: > 100 µM
SN12C renal
  TGI: > 100 µM
NCI-H522 lung
  TGI: > 100 µM
TK-10 renal
  TGI: > 100 µM
U251 CNS
  TGI: > 100 µM
MOLT-4 leukemia
  TGI: > 100 µM
UACC-62 melanoma
  TGI: > 100 µM

## Cc1ccc2nc(N/N=C/c3sccc3C)cc(C)c2c1
HCC-2998 colon
  TGI: > 100 µM
HS 578T breast
  TGI: > 100 µM
SNB-19 CNS
  TGI: > 100 µM
NCI/ADR-RES ovarian
  TGI: > 100 µM
MDA-N
  TGI: > 100 µM
786-0 renal
  TGI: > 100 µM
COLO 205 colon
  TGI: > 100 µM
SN12C renal
  TGI: > 100 µM
RXF 393 renal
  TGI: > 100 µM
TK-10 renal
  TGI: > 100 µM
U251 CNS
  TGI: > 100 µM
MOLT-4 leukemia
  TGI: > 100 µM
UACC-62 melanoma
  TGI: > 100 µM

## COc1ccc(Oc2cccc(C3C4C(=O)N(c5ccc(C)c(Cl)c5)C(=O)C4ON3C(C(N)=O)c3ccccc3)c2)cc1 (configuration not stated)
HS 578T breast
  TGI: > 50 µM
SF-295 CNS
  TGI: > 50 µM
SNB-19 CNS
  TGI: > 50 µM
MDA-N
  TGI: 23.6 µM
786-0 renal
  TGI: > 50 µM
COLO 205 colon
  TGI: 42.6 µM
SN12C renal
  TGI: 29.3 µM
RXF 393 renal
  TGI: 30.1 µM
NCI-H522 lung
  TGI: 32.6 µM
TK-10 renal
  TGI: > 50 µM
U251 CNS
  TGI: > 50 µM
MOLT-4 leukemia
  TGI: 43.4 µM
UACC-62 melanoma
  TGI: 34.9 µM

## CC1=C(O)C2=C(C(=O)C1=O)[C@@H](C)CC[C@@H]2[C@@H](C)C/C=C/C(C)(C)O
HS 578T breast
  TGI: > 100 µM
SF-295 CNS
  TGI: > 100 µM
SNB-19 CNS
  TGI: > 100 µM
NCI/ADR-RES ovarian
  TGI: > 100 µM
MDA-N
  TGI: > 100 µM
786-0 renal
  TGI: > 100 µM
COLO 205 colon
  TGI: > 100 µM
SN12C renal
  TGI: > 100 µM
NCI-H522 lung
  TGI: 58.8 µM
U251 CNS
  TGI: > 100 µM
MOLT-4 leukemia
  TGI: 93.2 µM
UACC-62 melanoma
  TGI: > 100 µM

## CC1CN=C(N(Cc2ccccc2)C(=O)Nc2ccc(Cl)c(Cl)c2)S1 (configuration not stated)
HCC-2998 colon
  TGI: > 10 µM
HS 578T breast
  TGI: > 100 µM
SF-295 CNS
  TGI: > 10 µM
SNB-19 CNS
  TGI: > 100 µM
NCI/ADR-RES ovarian
  TGI: > 100 µM
MDA-N
  TGI: > 100 µM
786-0 renal
  TGI: > 100 µM
COLO 205 colon
  TGI: > 100 µM
SN12C renal
  TGI: 69.3 µM
TK-10 renal
  TGI: > 100 µM
U251 CNS
  TGI: > 100 µM
MOLT-4 leukemia
  TGI: > 10 µM

## O=[N+]([O-])c1ccc(-c2nc3ccc(Cl)cc3[nH]2)cc1
HS 578T breast
  TGI: > 100 µM
SF-295 CNS
  TGI: > 100 µM
SNB-19 CNS
  TGI: > 100 µM
NCI/ADR-RES ovarian
  TGI: > 100 µM
MDA-N
  TGI: > 100 µM
786-0 renal
  TGI: > 100 µM
COLO 205 colon
  TGI: > 100 µM
SN12C renal
  TGI: > 100 µM
NCI-H522 lung
  TGI: > 100 µM
TK-10 renal
  TGI: > 100 µM
MOLT-4 leukemia
  TGI: > 100 µM
UACC-62 melanoma
  TGI: > 100 µM

## O=c1c2cc(S(=O)(=O)O)ccc2nc(COc2ccc(Oc3ccc(Cl)cc3Cl)cc2)n1-c1ccc(Oc2ccc(Cl)cc2)cc1Cl
HS 578T breast
  TGI: 42.3 µM
SF-295 CNS
  TGI: 35.5 µM
SNB-19 CNS
  TGI: 67.7 µM
NCI/ADR-RES ovarian
  TGI: 39.5 µM
MDA-N
  TGI: 59.2 µM
786-0 renal
  TGI: 40.7 µM
COLO 205 colon
  TGI: 34 µM
SN12C renal
  TGI: 32.9 µM
RXF 393 renal
  TGI: 17.9 µM
NCI-H522 lung
  TGI: 47.8 µM
TK-10 renal
  TGI: 58.8 µM
U251 CNS
  TGI: 30.1 µM
MOLT-4 leukemia
  TGI: 94.9 µM
UACC-62 melanoma
  TGI: 34.7 µM

## O=C(/C=C/c1ccc(Oc2cc(C(=O)/C=C/c3ccc(O)cc3)c(O)cc2O)cc1)c1ccc(O)cc1O
HS 578T breast
  TGI: > 100 µM
SF-295 CNS
  TGI: 18.5 µM
SNB-19 CNS
  TGI: 30.9 µM
NCI/ADR-RES ovarian
  TGI: 22.7 µM
786-0 renal
  TGI: 16 µM
COLO 205 colon
  TGI: 6.08 µM
SN12C renal
  TGI: 17 µM
RXF 393 renal
  TGI: 24.8 µM
NCI-H522 lung
  TGI: 19.1 µM
TK-10 renal
  TGI: 11.6 µM
U251 CNS
  TGI: 20.7 µM
MOLT-4 leukemia
  TGI: > 100 µM
UACC-62 melanoma
  TGI: 13 µM

## c1ccc2oc(-c3ccc(-c4nc5ccccc5o4)c4c3CC4)nc2c1
HCC-2998 colon
  TGI: > 100 µM
HS 578T breast
  TGI: > 100 µM
SF-295 CNS
  TGI: > 100 µM
SNB-19 CNS
  TGI: > 100 µM
NCI/ADR-RES ovarian
  TGI: > 100 µM
MDA-N
  TGI: > 100 µM
786-0 renal
  TGI: > 100 µM
COLO 205 colon
  TGI: > 100 µM
SN12C renal
  TGI: > 100 µM
RXF 393 renal
  TGI: > 100 µM
TK-10 renal
  TGI: > 100 µM
U251 CNS
  TGI: > 100 µM
MOLT-4 leukemia
  TGI: > 100 µM
UACC-62 melanoma
  TGI: > 100 µM

## O=C(/C=C/c1ccccc1)Oc1ccc(C(=O)/C=C/c2ccc(Cl)cc2)cc1
HCC-2998 colon
  TGI: > 100 µM
SF-295 CNS
  TGI: > 100 µM
SNB-19 CNS
  TGI: > 100 µM
NCI/ADR-RES ovarian
  TGI: > 100 µM
MDA-N
  TGI: > 100 µM
786-0 renal
  TGI: > 100 µM
COLO 205 colon
  TGI: > 100 µM
SN12C renal
  TGI: > 100 µM
RXF 393 renal
  TGI: > 100 µM
TK-10 renal
  TGI: > 100 µM
U251 CNS
  TGI: > 100 µM
MOLT-4 leukemia
  TGI: > 100 µM
UACC-62 melanoma
  TGI: > 100 µM

## COc1ccc(/C=N/n2c(C)n[nH]c2=O)c(OC)c1
HCC-2998 colon
  TGI: > 100 µM
HS 578T breast
  TGI: 9.01 µM
SF-295 CNS
  TGI: > 100 µM
SNB-19 CNS
  TGI: > 100 µM
NCI/ADR-RES ovarian
  TGI: > 100 µM
MDA-N
  TGI: > 100 µM
786-0 renal
  TGI: > 100 µM
COLO 205 colon
  TGI: > 100 µM
SN12C renal
  TGI: > 100 µM
U251 CNS
  TGI: > 100 µM
MOLT-4 leukemia
  TGI: > 100 µM
UACC-62 melanoma
  TGI: > 100 µM

## CC(N)Cc1ccc(Cl)c(Cl)c1 (configuration not stated)
HCC-2998 colon
  TGI: 31.2 µM
SF-295 CNS
  TGI: > 80.1 µM
SNB-19 CNS
  TGI: > 100 µM
786-0 renal
  TGI: > 100 µM
COLO 205 colon
  TGI: 36.5 µM
SN12C renal
  TGI: > 74 µM
RXF 393 renal
  TGI: 77.2 µM
NCI-H522 lung
  TGI: > 66.9 µM
TK-10 renal
  TGI: > 83 µM
U251 CNS
  TGI: > 89.6 µM
MOLT-4 leukemia
  TGI: 71.2 µM
UACC-62 melanoma
  TGI: 50.2 µM

## NS(=O)(=O)c1nnc(NS(=O)(=O)C(F)(F)F)s1
HCC-2998 colon
  TGI: > 100 µM
SF-295 CNS
  TGI: > 100 µM
SNB-19 CNS
  TGI: > 100 µM
NCI/ADR-RES ovarian
  TGI: > 100 µM
786-0 renal
  TGI: > 100 µM
COLO 205 colon
  TGI: > 100 µM
RXF 393 renal
  TGI: > 100 µM
NCI-H522 lung
  TGI: > 100 µM
TK-10 renal
  TGI: > 100 µM
U251 CNS
  TGI: > 100 µM
MOLT-4 leukemia
  TGI: > 100 µM
UACC-62 melanoma
  TGI: > 100 µM

## COc1ccc(OC)c(N(CN2C(=O)CCC2C(=O)O)C(C)=O)c1 (configuration not stated)
HS 578T breast
  TGI: > 100 µM
SF-295 CNS
  TGI: > 100 µM
SNB-19 CNS
  TGI: > 100 µM
NCI/ADR-RES ovarian
  TGI: > 100 µM
MDA-N
  TGI: > 100 µM
786-0 renal
  TGI: > 100 µM
COLO 205 colon
  TGI: > 100 µM
SN12C renal
  TGI: > 100 µM
NCI-H522 lung
  TGI: > 100 µM
TK-10 renal
  TGI: > 100 µM
U251 CNS
  TGI: > 100 µM
MOLT-4 leukemia
  TGI: > 100 µM
UACC-62 melanoma
  TGI: > 100 µM

## Oc1ccc2cc(Br)ccc2c1-c1c(O)ccc2ccc(Br)cc12
HCC-2998 colon
  TGI: 19.5 µM
HS 578T breast
  TGI: 24.2 µM
SF-295 CNS
  TGI: 30.6 µM
SNB-19 CNS
  TGI: 29.3 µM
NCI/ADR-RES ovarian
  TGI: 27.7 µM
MDA-N
  TGI: 24.6 µM
786-0 renal
  TGI: 28.2 µM
COLO 205 colon
  TGI: 26.5 µM
SN12C renal
  TGI: 24.3 µM
NCI-H522 lung
  TGI: 29.9 µM
TK-10 renal
  TGI: 31.2 µM
U251 CNS
  TGI: 28 µM
MOLT-4 leukemia
  TGI: 20.4 µM
UACC-62 melanoma
  TGI: 31 µM
